# Experimental data published in patent US9949983B2, “Fused benzazepines for treatment of stuttering” (PSYADON PHARMACEUTICALS, INC., priority 2013, dated 2018).
# Read-outs that look alike come from different tables or passages of the source.
# Legend:
# [1] = cited from earlier work
# [2] = test system: stuttering; conditions: cited from earlier work
# [3] = Open-label clinical study of safety, tolerability and activity in adult patients with Tourette's Syndrome; format: in vivo, human; conditions: adult TS patients, 50 mg/day Weeks 1-2, 100 mg/day Weeks 3-8
# Method: A clinical program was carried out to test the safety, tolerability, and activity of ecopipam in adult patients with Tourette's Syndrome. A multicenter, open-label, nonrandomized study in 25 to 30 subjects was conducted to assess the activity and safety of ecopipam in subjects with TS. […] Assessment was performed at each visit. A follow-up visit was conducted via telephone at Week 10 to record any adverse events. Ecopipam was administered daily before bedtime at 50 mg/day for Week 1 and Week 2 and at 100 mg/day for Weeks 3-8. This treatment regimen is within the scope of the present invention; the compositions and various formulations described herein can be administered as described in this Example. The demographics of the study population were as follows: eighty three percent of the subjects were male (15 out of 18); fifteen were Caucasian, two were African-American, and one was an Asian/Pacific Islander. All subjects reported at least one adverse event (AE). […] These side effects are similar to those seen in other studies with ecopipam and were not unexpected.
# [4] = test system: hD1/hD5 receptors; test: Binding to cloned human receptors
# Method: (§1) Activation of D1 receptors by dopamine and similar agonists stimulates the production of cyclic AMP (cAMP) via activation of adenylate cyclase. […] To ensure that there was no species specificity to the receptor binding profile, ecopipam's potency and selectivity were evaluated using cloned human receptors. […] Positron emission tomography (PET) studies using radiolabeled ecopipam have been conducted in healthy volunteers (Karlsson et al., Psychopharmacol., 121:300-308, 1995).
# [5] = target: T1, D1 receptor (Rattus norvegicus, UniProt P18901); conditions: rats, selective D1-agonist discriminative stimulus; cited from earlier work
# T1 construct: In vivo studies on dopamine-agonist-induced behaviors; from tissue; host or cells: living rats (in vivo)
# T1 sequence (P18901 whole entry): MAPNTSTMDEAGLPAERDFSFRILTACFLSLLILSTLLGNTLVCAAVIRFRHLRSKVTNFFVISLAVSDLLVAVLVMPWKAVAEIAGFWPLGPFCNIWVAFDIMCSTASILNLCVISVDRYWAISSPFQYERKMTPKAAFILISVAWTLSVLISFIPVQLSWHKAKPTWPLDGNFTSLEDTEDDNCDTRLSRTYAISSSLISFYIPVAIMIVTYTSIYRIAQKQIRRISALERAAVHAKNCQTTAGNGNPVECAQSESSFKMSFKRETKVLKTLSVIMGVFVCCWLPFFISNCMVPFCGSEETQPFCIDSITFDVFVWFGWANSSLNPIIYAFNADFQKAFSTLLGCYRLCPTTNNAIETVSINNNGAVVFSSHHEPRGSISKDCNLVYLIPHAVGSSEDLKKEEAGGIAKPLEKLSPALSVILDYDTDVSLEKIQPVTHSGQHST
# [6] = test system: D1/D5 receptors; conditions: rat brain homogenates, at low concentrations; cited from earlier work
# [7] = target: D1 receptors (Homo sapiens, UniProt P21728); test: In vitro cAMP second messenger studies (adenylate cyclase); format: biochemical
# D1 receptors, sequence (P21728 whole entry): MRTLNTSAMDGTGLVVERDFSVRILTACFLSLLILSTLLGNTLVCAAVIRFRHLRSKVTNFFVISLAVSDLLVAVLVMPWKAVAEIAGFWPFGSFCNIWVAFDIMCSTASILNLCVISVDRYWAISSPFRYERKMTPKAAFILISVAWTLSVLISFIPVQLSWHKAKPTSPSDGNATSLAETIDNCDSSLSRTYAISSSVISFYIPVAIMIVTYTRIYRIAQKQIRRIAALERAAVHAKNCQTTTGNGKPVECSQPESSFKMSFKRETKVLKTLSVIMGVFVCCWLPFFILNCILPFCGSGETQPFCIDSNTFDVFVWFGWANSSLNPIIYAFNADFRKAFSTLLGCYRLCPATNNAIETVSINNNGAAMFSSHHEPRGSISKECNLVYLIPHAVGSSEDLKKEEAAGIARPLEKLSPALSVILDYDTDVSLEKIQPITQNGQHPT
# Method: as §1
# [8] = target: dopamine D1 receptors (Homo sapiens, UniProt P21728); conditions: radiolabeled ecopipam, healthy volunteers; cited from earlier work
# dopamine D1 receptors, sequence (P21728 whole entry): as above
# [9] = known D2 antagonists, literature reports
smiles,measurement,setting,value
"CN1CCc2cc(Cl)c(O)cc2[C@H]2c3ccccc3CC[C@@H]21 [Q=CH2, n=1, 7b(R): 7a(S)(−), X=Cl, Y=OH, 6,7,7a,8,9,13b-hexahydro-3-chloro-2-hydroxy-7-methyl-5H-benzo[d]naphtho[2,1-b]azepine]",CAR (MED),[1]; po,30 (po)
"CN1CCc2cc(Cl)c(O)cc2[C@@H]2c3ccccc3CC[C@H]21 [Q=CH2, n=1, 7b(S):7a(R)(+), X=Cl, Y=OH, 6,7,7a,8,9,13b-hexahydro-3-chloro-2-hydroxy-7-methyl-5H-benzo[d]naphtho[2,1-b]azepine]",CAR (MED),[1]; po,>30 (po)
"COc1cc2c(cc1O)C1c3ccccc3CCC1N(C)CC2 (stereo not drawn) [Q=CH2, n=1, trans, X=CH3O, Y=OH, 6,7,7a,8,9,13b-hexahydro-2-hydroxy-3-methoxy-7-methyl-5H-benzo[d]naphtho[2,1-b]azepine]",CAR (MED),[1]; po,30
same,CAR (MED),[1]; sc,0.3-1
"CN1CCc2cc(Cl)c(N)cc2C2c3ccccc3CCC21 (stereo not drawn) [Q=CH2, n=1, trans, X=Cl, Y=NH2, 6,7,7a,8,9,13b-hexahydro-2-amino-3-chloro-7-methyl-5H-benzo[d]naphtho[2,1-b]azepine]",CAR (MED),[1]; po,3 (po)
"CN1CCc2cc(Cl)c(O)cc2C2c3ccccc3CCC21 (stereo not drawn) [Q=CH2, n=1, trans, X=Cl, Y=OH, 6,7,7a,8,9,13b-hexahydro-3-chloro-2-hydroxy-7-methyl-5H-benzo[d]naphtho[2,1-b]azepine]",CAR (MED),[1]; po,30
same,CAR (MED),[1]; sc,0.3
"COc1cc2c(cc1O)C1c3ccccc3CCCC1N(C)CC2 (stereo not drawn) [Q=CH2, n=2, trans, X=CH3O, Y=OH, 2-hydroxy-3-methoxy-7-methyl-5,6,7,7a,8,9,10,14b-octahydro-benzo[d]benzo[3,4]cyclo-hepta[1,2-b]azepine]",CAR (MED),[1]; sc,10 (sc)
"COc1cc2c(cc1O)CCN(C)C1CCCc3ccccc3C21 (stereo not drawn) [Q=CH2, n=2, trans, X=HO, Y=CH3O, 3-hydroxy-2-methoxy-7-methyl-5,6,7,7a,8,9,10,14b-octahydro-benzo[d]benzo[3,4]cyclo-hepta[1,2-b]azepine]",CAR (MED),[1]; sc,10 (sc)
CN1CC2c3ccccc3Oc3ccc(Cl)cc3C2C1 (stereo not shown) [asenapine],reported effect on stuttering,[2]; [9],induce stuttering
"CN1CCc2cc(Cl)c(O)cc2[C@H]2c3ccccc3CC[C@@H]21 [ecopipam, (−)-trans-6,7,7a,8,9,13b-hexahydro-3-chloro-2-hydroxy-N-methyl-5H-benzo [d]-naphtho-[2,1-b]azepine]",patients reporting AEs rated as severe,[3]; 18 subjects,Four
same,subjects reporting at least one adverse event,[3]; 18 subjects,All subjects
same,AEs rated as severe (kinds),[3],"sedation, insomnia, decreased appetite, hypersensitivity, cold sweat, and feeling jittery"
same,AEs rated mild to moderate reported in more than three subjects,[3],"fatigue, insomnia, nausea, sedation, headache, restlessness, anxiety, muscle twitching, dysphoria, and sleeplessness"
same,changes in lab tests,[3],none were of clinical significance
same,changes in vital signs,[3],no clinically significant changes in vital signs
same,serious adverse events,[3],no serious adverse events
same,affinity for hD1/hD5 receptors,[4],high affinity
same,action on dopamine-agonist-induced behaviors,[5],selective D1 antagonist
same,affinity for D1/D5 receptors,[6],high affinity
same,action on cAMP second messenger,[7],antagonist
same,binding in human brain (PET),[8],specific binding in the human brain
COC(=O)C(c1ccccc1)C1CCCCN1 (stereo not shown) [methylphenidate],reported effect on stuttering,"[2]; D2-preferring dopamine agonist, literature report",relieve stuttering
Cc1cc2c(s1)Nc1ccccc1N=C2N1CCN(C)CC1 [olanzapine],reported effect on stuttering,[2]; [9],induce stuttering
Cc1nc2n(c(=O)c1CCN1CCC(c3noc4cc(F)ccc34)CC1)CCCC2 [risperidone],reported effect on stuttering,[2]; [9],induce stuttering
